Converted amounts (≈) assume the structure as drawn.
How the values were obtained:
[1] = test system: CHO-K1 cells; test: MTT cytotoxicity assay; type: cell-based, Chinese hamster; details: 24 h, MTT
[2] = test system: BEAS-2B cells; test: MTT cytotoxicity assay; type: cell-based, human; details: 24 h
[3] = test system: E. histolytica trophozoites (amoebic liver abscess); test: Amoebic liver abscess (ALA) model, antiparasitic protocol; type: in vivo, Mesocricetus auratus
Text: M. auratus was used as an animal model because the hamster is naturally susceptible to infection by E. histolytica and can develop amoebic colitis or extraintestinal complications such as an ALA [71]. In this context, the hamster can be used to search for new alternative therapeutic agents against amoebiasis. The hamsters were acquired from Charles River Laboratories Inc. (Wilmington, MA, USA) in 2017 by Centro de Investigación y de Estudios Avanzados del Instituto Politécnico Nacional ([…]-IPN). […] Male hamsters (sexually mature and homozygous) weighing 95 ± 5 g and ≈10 weeks old were selected for the experiments. They were maintained in aseptic conditions at 25 ± 1 °C, 50 ± 3% humidity, a 12 h photoperiod, and ad libitum access to a standard diet (LabDiet; Richmond, IN, USA) and water (Figure 5A). The hamsters were housed in polycarbonate boxes (five per box), with an American Iron and Steel Institute (AISI) lid and wood shavings as bedding, in a controlled room of the Animal Production and Experimentation Unit (UPEAL) from […]-IPN (Figure 5A). Additionally, the health state of the hamsters and their adaptation to the new laboratory conditions were evaluated for 15 days to decrease their stress and anxiety levels. This study was carried out according to the Official Mexican Regulations (NOM-062-ZOO-1999) and NC3Rs ARRIVE [60, 72]. The protocol was approved by the Institutional Animal Care and Use Committee (Reg. No. 0183-16). Finally, the hamsters were not subjected to any previous experimental procedure or any additional treatment before beginning the experimental procedures (see File S1, NC3Rs ARRIVE Guidelines Checklist). Compounds that are prohibited and/or not recommended for use in animals by the American Veterinary Medical Association (Guidelines for the Euthanasia of Animals) were not used.
These experiments were performed with three independent biological replicates. For each replicate, twenty-five hamsters were randomly distributed (simple type) into five experimental groups (five animals per group). The sample size was determined based on the Organization for Economic Cooperation and Development (OECD) recommendations that establish the minimum number of individuals required for the tests so as not to sacrifice animals unnecessarily. Laparotomy was performed in aseptic conditions by using depilation, iodine solution, as well as sterile field cloths. Subsequently, an intra-hepatic puncture was made to deliver 1.5 × 10^6 virulent E. histolytica trophozoites in 100 μL of 1× PBS into the left hepatic lobe for ALA induction (Figure 5A-3). The injection site was immediately covered by applying a gel foam pad to maintain hemostasis. The abdominal layers were sutured discontinuously by single vertical stitches using Vicryl synthetic absorbable suture with a triangular pointed half circle needle. Irregular edges or folds in the surgical wound were eliminated to avoid tissue devitalization or possible infections. The development of a hepatic ALA was monitored for 4 days (Figure 5A-4).
(Figure 5B). The compounds were administered by the i.p. route because the peritoneal cavity presents rapid fluid absorption into the bloodstream, and initial biotransformation by the gastrointestinal tract is avoided. […] The hamsters were evaluated 24 h post-treatment to detect any signs of discomfort/pain or toxicity. The humane endpoint criteria used in this study were >20% body weight loss overnight, cachexia, recumbence, lethargy, respiratory distress, inability to reach food and water, lack of grooming, and ulceration around the surgical site, among others. Additionally, the weight of hamsters was determined at the beginning and end of the experiment with an electronic bascule (CS200, Ohaus; Parsippany, NJ, USA), and the ALA volume was calculated based on imaging (Figure 5B-1). […]

[4] = Paraclinical analysis (serum biochemistry, hematic biometry) in ALA hamsters; type: in vivo, Mesocricetus auratus
Protocol: Serum was obtained by centrifugation at 3500 rpm and frozen at −70 °C until analysis. Hematic biometry was performed in a hematology autoanalyzer system (BC-2300, Mindray; Shenzhen, China), and biochemical parameters were made on an automatic medical system (Prestige 24i, Tokyo Boeki; Kanagawa, Japan).

[5] = in vivo
Protocol: After blood samples were obtained, the hamsters were sacrificed with a lethal dose of sodium pentobarbital, followed by a cervical fracture. They were mounted on a dissecting board for the necropsy. A complete mid-laparotomy was performed to remove the lungs, spleen, heart, liver, and kidneys. An excisional biopsy was performed to recover the ALA lesions for morphometric analysis. The organs and ALA lesions were rinsed with 1× PBS, weighed, and adherent tissue was removed. […] Later, the inclusion protocol was performed to obtain histological sections (3 μm thick) with a rotatory microtome (RM2125-RTS, Leica; Wetzlar, Germany). Tissue slices were stained with hematoxylin-eosin (Merck; Rahway, NJ, USA), mounted on coverslips with Entellan^TM-New (Merck; Rahway, NJ, USA), and observed with optical microscopy (Eclipse 80i, Nikon; Tokio, Japan).

[6] = test system: E. histolytica trophozoites (virulent HM-1 strain)
[7] = Chinese hamster (CHO-K1) and human (BEAS-2B)
[8] = test system: E. histolytica trophozoites (virulent HM-1 strain); test: microbe, parasite or virus in culture; details: Entamoeba histolytica, 48 h, read-out: IC50 HM-1, 48 h, flow cytometry

Cc1ncc([N+](=O)[O-])n1CCO [MTZ, metronidazole, reference compound]
biological activity symbol on IC50 CHO-K1 [1]: -
IC50 ([1]; Cricetulus griseus, CHO-K1, read-out: IC50 CHO-K1): 500 µg/mL (≈ 2920 µM)
biological activity symbol on IC50 BEAS-2B [2]: -
IC50 ([2]; Homo sapiens, BEAS-2B): 400 µg/mL (≈ 2340 µM)
Edges ([3]; ALA characteristics): Regular and well defined
Leukocyte infiltrate ([3]; ALA characteristics): −
Liquid ([3]; ALA characteristics): −
Morphology ([3]; ALA characteristics): Round
ALA Volume ([3]; MRI, i.p. 4 days): 528 ± 183.5 * mm^3
MRI T1 signal of ALA ([3]; T1): Intermediate intensity
MRI T2 signal of ALA ([3]; T2): hypointense
ALA Weight ([3]; i.p. 4 days, KP 5, LL 10, MTZ 10 mg/kg/day): 0.33 ± 0.32 g
MPV ([4]; blood, ALA hamsters, i.p. 4 days): 8 ± 0.1 fL
TB/AL ratio ([4]; drug toxicity ratio): 0.38 ± 0.16
neutrophil/lymphocyte ratio ([4]; hematic ratio): 1.15 ± 0.7
Band neutrophils ([4]; in vivo): 0%
Basophils ([4]; in vivo): 0%
Eosinophils ([4]; in vivo): 0%
Immature forms ([4]; in vivo): 0%
Lymphocytes ([4]; in vivo): 50 ± 13%
Monocytes ([4]; in vivo): 0%
Segmented neutrophils ([4]; in vivo): 51 ± 13%
ALT (GPT) ([4]; in vivo, ip): 135 ± 23 U/L
AST (GOT) ([4]; in vivo, ip): 81 ± 24 U/L
Albumin ([4]; in vivo, ip): 1.9 ± 0.3 g/dL
Alkaline phosphatase ([4]; in vivo, ip): 230 ± 11 U/L
Cholesterol ([4]; in vivo, ip): 116 ± 9.1 mg/dL
Creatinine ([4]; in vivo, ip): 1.01 ± 0.2 mg/dL
Direct bilirubin ([4]; in vivo, ip): 0.5 ± 0.1 mg/dL
Erythrocytes ([4]; in vivo, ip): 3.7 ± 0.2 x10 6/mm3
GGT ([4]; in vivo, ip): 5.5 ± 2.3 U/L
Glucose ([4]; in vivo, ip): 161 ± 21 mg/dL
Hematocrit ([4]; in vivo, ip): 35 ± 2.6%
Hemoglobin ([4]; in vivo, ip): 14. 7 ± 1.2 g/dL
Indirect bilirubin ([4]; in vivo, ip): 0.20 ± 0.1 mg/dL
Leukocytes ([4]; in vivo, ip): 7.7 ± 2.6 x100/mm3
MCH ([4]; in vivo, ip): 40 ± 1.6 pg
MCHC ([4]; in vivo, ip): 43 ± 1.4 g/dL
MCV ([4]; in vivo, ip): 94 ± 2.2 fL
PCT ([4]; in vivo, ip): 0.4 ± 0.1%
PDW ([4]; in vivo, ip): 11 ± 0.4 fL
Platelets ([4]; in vivo, ip): 536 ± 148 x106/μL
RDW-CV ([4]; in vivo, ip): 25.8 ± 3.3 fL
RDW-SD ([4]; in vivo, ip): 111 ± 12 fL
Total bilirubin ([4]; in vivo, ip): 0.7 ± 0.3 mg/dL
Total protein ([4]; in vivo, ip): 5.3 ± 0.9 g/dL
Triglycerides ([4]; in vivo, ip): 280 ± 75 mg/dL
Urea ([4]; in vivo, ip): 41.2 ± 1.4 mg/dL
BUN/CR ratio ([4]; kidney damage ratio): 19.6 ± 3.8
urea/CR ratio ([4]; kidney damage ratio): 42 ± 8.15
AST/ALT ratio (De Ritis ratio) ([4]; liver injury ratio): < 1
Heart largest diameter [5]: 1.08 ± 0.04 cm
Heart weight [5]: 0.38 ± 0.1 g
Kidneys largest diameter [5]: 1.3 ± 0.08 cm
Kidneys weight [5]: 0.52 ± 0.0 g
Liver largest diameter [5]: 4 ± 0.15 cm
Liver weight [5]: 5.76 ± 1.4 g
Lungs largest diameter [5]: 2.5 ± 0.2 cm
Lungs weight [5]: 0.68 ± 0.05 g
Spleen largest diameter [5]: 3.3 ± 0.3 cm
Spleen weight [5]: 0.2 ± 0.05 g
apoptotic trophozoites [6]: 2%
decrease of size and granularity of the cell population [6]: 52%
necrotic trophozoites [6]: 62.2%
biological activity symbol on IC50 HM-1 ([6]; 48 h): ++
LD50 (Theoretical) [7]: 1026 mg/kg
Survival rate (ALA hamsters, i.p. 4 days): 100%
Toxicity signs (in vivo, ip): None
IC50 [8]: 0.16 µg/mL (≈ 0.935 µM)
